In US20080145375A1, “Vaccination” (Glaxo Group Limited, priority 2003, published 2008):

Columns and labels:
[1] = tested on: TLRs 1-9 mRNA in monocyte derived DC; assay: Taqman analysis of TLR expression on IFNγ treated DC; assay type: cell-based, human; settings: DC treated with IFNγ for 24 hours; 3 healthy donors; FIG. 6
Experimental: Monocytes were isolated from the PBMC of 3 healthy donors and cultured with IL-4 & GM-CSF for 7 days to induce differentiation to immature DC. The DC were then treated with IFNγ for 24 hours. mRNA expression of TLRs 1-9 was then measured by Taqman. In contrast to published reports we have shown that low levels of TLR7 are constitutively expressed on monocyte derived DC. […] The increase in TLR7 expression at 24 hours post stimulation in vitro provides an explanation for the results in FIG. 5 showing the good effect of Imiquimod at 24 hours post immunisation.

[2] = tested on: mice immunised with p731-RNG (GW825780X); assay: IFNγ Elispot after PMID immunisation with p731-RNG, imiquimod at 0 h or 24 h; assay type: in vivo, mouse; settings: application 24 h post immunisation; 2×0.5 ug p731-RNG by PMID; spleens day 14; GAG CD8 peptide AMQMLKETI; FIG. 5
Experimental: (§1) Plasmid DNA was precipitated onto 2 μm diameter gold beads using calcium chloride and spermidine. Equal amounts of plasmids encoding antigen (p7313OVAcyt, p7313RNG, pVAC7VNTRMuc1, pVAC7VNTRMuc1-PADRE or pVAC7VNTRMuc1-HepB) and p7313GMCSF plasmids were mixed and co-precipitated so that all beads were coated with a mixture of the 2 plasmids ensuring delivery of both plasmids to the same cell. Unless otherwise stated both the antigen and GMCSF were loaded at 0.5 ug/cartridge. Where lower doses of antigen were used the GMCSF loading remained at 0.5 ug and the total DNA on the cartridge was adjusted to 1 ug using p7313empty or pVACempty plasmids. Loaded beads were coated onto Tefzel tubing as described in, for example, Eisenbraum, et al. 1993. DNA Cell Biol. 12:791-797; Pertmer et al, 1996 J. Virol. 70:6119-6125). Particle bombardment was performed using the Accell gene delivery (PCT WO 95/19799; incorporated herein by reference). […]
(§2) Cells were removed from the plates by washing once with water (with 1 minute soak to ensure lysis of cells) and three times with PBS. […] Spots were enumerated using an image analysis system devised by Brian Hayes, Asthma Cell Biology unit, GSK or the AID Elispot reader (Cadama Biomedical, UK). […]
Spleens were harvested at day 14 post immunisation and the cellular responses analysed by IFNγ Elispot following stimulation with a GAG balb/c CD8 9mer peptide: AMQMLKETI.

[3] = tested on: C56BI/6 mice immunised with p7313OVAcyt; assay: ELISPOT after primary PMID immunisation with p7313OVAcyt; assay type: in vivo, mouse; settings: delivered singly with p7313 OVAcyt; Day 7 post primary immunisation; FIG. 8
Experimental: as §1, with “reference). Female C56BI/6 mice were immunised with 2 administrations of plasmid at each time point as detailed in the results section, one on each side of the abdomen after shaving.” for “reference).”
as §2

[4] = tested on: mice immunised with pVAC7VNTR muc1; assay: Elispot of Muc1 CD4 responses after immunisation with pVAC7VNTR muc1; assay type: in vivo, mouse; settings: immunised days 0 and 21; day 7 post boost; compared to pVAC 7VNTRMuc1 alone; FIG. 12
Experimental: For OVA assays peptide SIINFEKL, a dominant CD8 peptide of OVA, was used in assays at a final concentration of 50 nM to measure CD8 responses and peptide […] was used at a final concentration of 10 μM to measure CD4 responses. For ICS assays Ovalbumin protein was also used to measure CD4 responses at 1 mg/ml. For ELISPOT to detect responses to p7313RNG peptide the CD8 peptide AMQMLKETI was used for stimulation. For detecting responses to Muc1, CD4 peptides […] and […] were used at 10 uM, and CD8 peptide SAPDNRPAL was used at 10 nM. The 9-mer peptides used to follow CD8 responses to Gag and RT in mice were […] (Gag CD8) and YYPDSKDLI (RT CD8) respectively, and CD4 responses to Gag and RT were followed using […] (Gag CD4) and […] (RT CD4) respectively. Peptide […] (Nef 218) was also tested. These peptides were tested at a final concentration of 10 μM. The peptides were obtained from Genemed Synthesis, South San Francisco.
Experiments were carried out to determine the effect of GMCSF and Imiquimod treatment on responses to pVAC7VNTR Muc1. Mice were immunised at days 0 and 21 with pVAC7VNTR muc1. This was delivered alone, co-delivered with p7313GMCSF, or with p7313GMCSF and Imiquimod application at 24 hours post immunisation. Spleens were harvested at day 7 post boost and analysed by Elispot following overnight stimulation with Muc1 CD4 peptides.

[5] = tested on: C57/bl6 mice immunised with OVAcyt; assay: In vivo cytotoxicity assay (SIINFEKL pulsed CSFE labelled splenocytes); set-up: species or system mouse; settings: 3 mice per group; Day 7, 14, 21 and 42 post immunisation; FIG. 18
Experimental: The effect of GMCSF and Imiquimod on cytotoxic responses to p7313OVA after primary immunisation was also measured by in vivo cytotoxicity assays (FIG. 18). C57/bl6 mice were immunised with either OVAcyt or OVAcyt+GMCSF by PMID. At 24 hours post immunisation imiquimod was applied on the immunisation site. At Day 7, 14, 21 and 42 post immunisation mice were injected i.v. with CSFE labelled splenocytes consisting of [sequence] peptide pulsed and unpulsed in equal numbers. After 2 hours the blood was analysed by flow cytometry and the ratio of pulsed to unpulsed cells remaining was calculated to give a numerical value of cytotoxicity.

RIP OVAlo mice = assay: Breaking tolerance in RIP OVAlo mice; assay type: in vivo, mouse; settings: four immunisations at 3 weeks intervals; SIINFEKL restimulation
Excerpt: RIP OVAlo mice were used to test the potential for tolerance breaking of the GMCSF+Imiquimod combination (FIG. 20). RIP OVAlo mice express ovalbumin (OVA) on the insulin producing beta cells of the pancreas and are therefore tolerant to this molecule. Disruption of this tolerance results in autoimmune destruction of the beta cells leading to diabetes which can be easily monitored by measurement of glycosuria and blood glucose level. RIPova lo and C57/BL6 mice (wt control group) received four immunisations with empty vector or OVAcyt (using PMID), ±GM-CSF (using PMID), and ±Imiquimod. Immunisations were given at 3 weeks intervals. Imiquimod was applied topically on the site of immunisation 24 h after PMID. 7 Days after the last immunisation splenocytes and serum samples were taken. […] The functional test for tolerance breaking in this model is development of diabetes. This is measured by urine glucose levels.

Compound | mRNA expression of TLR2 [1] | mRNA expression of TLR7 and TLR8 [1] | adjuvant effect on cellular responses, IFNγ Elispot [2] | adjuvant effect in Elispot assays [3] | Muc1 CD4 responses (Elispot) [4] | in vivo cytotoxicity [5] | CD8 responses (IFNγ and IL2 production in CD8+ T cells) (RIP OVAlo mice)
IFNγ: interferon-gamma used to treat monocyte derived DC for 24 hours | upregulated but to a lesser extent | expression of TLR8 and increased levels of expression of TLR7 were found in all 3 donors |  |  |  |  | 
CC(C)Cn1cnc2c(N)nc3ccccc3c21 [Imiquimod, imiquimod] |  |  | good adjuvant effect | adjuvant effects | improved CD4 responses | clear benefit over OVA alone | there are responses
GMCSF |  |  |  | adjuvant effects | improved CD4 responses |  | there are responses
